{"source": "PubChem BioAssay AID1963961", "about": "(Molecular Pharmacology Branch, DTP, NCI, 2024);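 further: spheroids exposed to agents for seven days before read-out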", "system": "K98450-129-R-PDC multicell spheroids, viability", "test": "Anticancer human tumor K98450-129-R-PDC patient-derived colon adenocarcinoma cell line growth inhibition [PI3K]", "details": "for IC50: curve of first compound; for viability, T/C: stronger effect = lower value", "how_it_was_run": "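Tumor cells were combined with HUVEC and MSCs into spheroids, then dosed with PI3K-inhibitor combinations over half-log ranges capped near clinical Cmax or 10 microM.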"}
{"smiles": "C[C@@H](NC(=O)c1ncnc(N)c1Cl)c1ncc(C(=O)Nc2cc(C(F)(F)F)c(Cl)cn2)s1", "note": "+ Cc1nc(NC(=O)N2CCCC2C(N)=O)sc1-c1ccnc(C(C)(C)C(F)(F)F)c1", "values": [{"measurement": "IC50", "setting": "second compound 0.0316 µM", "result": "> 10000", "unit": "nM"}, {"measurement": "IC50", "setting": "second compound 0.1 µM", "result": "> 10000", "unit": "nM"}, {"measurement": "IC50", "setting": "second compound 0.316 µM", "result": "> 10000", "unit": "nM"}, {"measurement": "IC50", "setting": "second compound 1 µM", "result": "> 10000", "unit": "nM"}, {"measurement": "IC50", "setting": "second compound 3.16 µM", "result": "> 10000", "unit": "nM"}, {"measurement": "IC50", "setting": "second compound 10 µM", "result": "> 10000", "unit": "nM"}, {"measurement": "viability, T/C", "setting": "second compound 0.0316 µM, first compound 0.0316 µM", "result": 104, "unit": "%"}, {"measurement": "viability, T/C", "setting": "second compound 0.0316 µM, first compound 0.1 µM", "result": 106, "unit": "%"}, {"measurement": "viability, T/C", "setting": "second compound 0.0316 µM, first compound 0.316 µM", "result": 119, "unit": "%"}, {"measurement": "viability, T/C", "setting": "second compound 0.0316 µM, first compound 1 µM", "result": 117, "unit": "%"}, {"measurement": "viability, T/C", "setting": "second compound 0.0316 µM, first compound 3.16 µM", "result": 112, "unit": "%"}, {"measurement": "viability, T/C", "setting": "second compound 0.0316 µM, first compound 10 µM", "result": 103, "unit": "%"}, {"measurement": "viability, T/C", "setting": "second compound 0.1 µM, first compound 0.0316 µM", "result": 117, "unit": "%"}, {"measurement": "viability, T/C", "setting": "second compound 0.1 µM, first compound 0.1 µM", "result": 98.2, "unit": "%"}, {"measurement": "viability, T/C", "setting": "second compound 0.1 µM, first compound 0.316 µM", "result": 119, "unit": "%"}, {"measurement": "viability, T/C", "setting": "second compound 0.1 µM, first compound 1 µM", "result": 104, "unit": "%"}, {"measurement": "viability, T/C", "setting": "second compound 0.1 µM, first compound 3.16 µM", "result": 112, "unit": "%"}, {"measurement": "viability, T/C", "setting": "second compound 0.1 µM, first compound 10 µM", "result": 104, "unit": "%"}, {"measurement": "viability, T/C", "setting": "second compound 0.316 µM, first compound 0.0316 µM", "result": 107, "unit": "%"}, {"measurement": "viability, T/C", "setting": "second compound 0.316 µM, first compound 0.1 µM", "result": 104, "unit": "%"}, {"measurement": "viability, T/C", "setting": "second compound 0.316 µM, first compound 0.316 µM", "result": 106, "unit": "%"}, {"measurement": "viability, T/C", "setting": "second compound 0.316 µM, first compound 1 µM", "result": 108, "unit": "%"}, {"measurement": "viability, T/C", "setting": "second compound 0.316 µM, first compound 3.16 µM", "result": 110, "unit": "%"}, {"measurement": "viability, T/C", "setting": "second compound 0.316 µM, first compound 10 µM", "result": 103, "unit": "%"}, {"measurement": "viability, T/C", "setting": "second compound 1 µM, first compound 0.0316 µM", "result": 92.6, "unit": "%"}, {"measurement": "viability, T/C", "setting": "second compound 1 µM, first compound 0.1 µM", "result": 99, "unit": "%"}, {"measurement": "viability, T/C", "setting": "second compound 1 µM, first compound 0.316 µM", "result": 105, "unit": "%"}, {"measurement": "viability, T/C", "setting": "second compound 1 µM, first compound 1 µM", "result": 102, "unit": "%"}, {"measurement": "viability, T/C", "setting": "second compound 1 µM, first compound 3.16 µM", "result": 111, "unit": "%"}, {"measurement": "viability, T/C", "setting": "second compound 1 µM, first compound 10 µM", "result": 90, "unit": "%"}, {"measurement": "viability, T/C", "setting": "second compound 3.16 µM, first compound 0.0316 µM", "result": 84.8, "unit": "%"}, {"measurement": "viability, T/C", "setting": "second compound 3.16 µM, first compound 0.1 µM", "result": 90.3, "unit": "%"}, {"measurement": "viability, T/C", "setting": "second compound 3.16 µM, first compound 0.316 µM", "result": 96.5, "unit": "%"}, {"measurement": "viability, T/C", "setting": "second compound 3.16 µM, first compound 1 µM", "result": 91.7, "unit": "%"}, {"measurement": "viability, T/C", "setting": "second compound 3.16 µM, first compound 3.16 µM", "result": 95.8, "unit": "%"}, {"measurement": "viability, T/C", "setting": "second compound 3.16 µM, first compound 10 µM", "result": 75.1, "unit": "%"}, {"measurement": "viability, T/C", "setting": "second compound 10 µM, first compound 0.0316 µM", "result": 76.5, "unit": "%"}, {"measurement": "viability, T/C", "setting": "second compound 10 µM, first compound 0.1 µM", "result": 74.3, "unit": "%"}, {"measurement": "viability, T/C", "setting": "second compound 10 µM, first compound 0.316 µM", "result": 83.7, "unit": "%"}, {"measurement": "viability, T/C", "setting": "second compound 10 µM, first compound 1 µM", "result": 76.8, "unit": "%"}, {"measurement": "viability, T/C", "setting": "second compound 10 µM, first compound 3.16 µM", "result": 72.5, "unit": "%"}, {"measurement": "viability, T/C", "setting": "second compound 10 µM, first compound 10 µM", "result": 58.5, "unit": "%"}]}
{"smiles": "Cn1cnc2c(F)c(Nc3ccc(Br)cc3Cl)c(C(=O)NOCCO)cc21", "note": "+ CC(Nc1ncnc2nc[nH]c12)c1cc2cccc(Cl)c2c(=O)n1-c1ccccc1", "values": [{"measurement": "IC50", "setting": "second compound 0.0316 µM", "result": 897, "unit": "nM"}, {"measurement": "IC50", "setting": "second compound 0.1 µM", "result": 984, "unit": "nM"}, {"measurement": "IC50", "setting": "second compound 0.316 µM", "result": 909, "unit": "nM"}, {"measurement": "IC50", "setting": "second compound 1 µM", "result": 699, "unit": "nM"}, {"measurement": "IC50", "setting": "second compound 3.16 µM", "result": 822, "unit": "nM"}, {"measurement": "IC50", "setting": "second compound 10 µM", "result": 725, "unit": "nM"}, {"measurement": "viability, T/C", "setting": "second compound 0.0316 µM, first compound 0.00949 µM", "result": 95.4, "unit": "%"}, {"measurement": "viability, T/C", "setting": "second compound 0.0316 µM, first compound 0.03 µM", "result": 99.9, "unit": "%"}, {"measurement": "viability, T/C", "setting": "second compound 0.0316 µM, first compound 0.0949 µM", "result": 86.3, "unit": "%"}, {"measurement": "viability, T/C", "setting": "second compound 0.0316 µM, first compound 0.3 µM", "result": 70.7, "unit": "%"}, {"measurement": "viability, T/C", "setting": "second compound 0.0316 µM, first compound 0.949 µM", "result": 50.1, "unit": "%"}, {"measurement": "viability, T/C", "setting": "second compound 0.0316 µM, first compound 3 µM", "result": 24.9, "unit": "%"}, {"measurement": "viability, T/C", "setting": "second compound 0.1 µM, first compound 0.00949 µM", "result": 99.5, "unit": "%"}, {"measurement": "viability, T/C", "setting": "second compound 0.1 µM, first compound 0.03 µM", "result": 88.6, "unit": "%"}, {"measurement": "viability, T/C", "setting": "second compound 0.1 µM, first compound 0.0949 µM", "result": 82.2, "unit": "%"}, {"measurement": "viability, T/C", "setting": "second compound 0.1 µM, first compound 0.3 µM", "result": 91.5, "unit": "%"}, {"measurement": "viability, T/C", "setting": "second compound 0.1 µM, first compound 0.949 µM", "result": 50.9, "unit": "%"}, {"measurement": "viability, T/C", "setting": "second compound 0.1 µM, first compound 3 µM", "result": 24.2, "unit": "%"}, {"measurement": "viability, T/C", "setting": "second compound 0.316 µM, first compound 0.00949 µM", "result": 100, "unit": "%"}, {"measurement": "viability, T/C", "setting": "second compound 0.316 µM, first compound 0.03 µM", "result": 103, "unit": "%"}, {"measurement": "viability, T/C", "setting": "second compound 0.316 µM, first compound 0.0949 µM", "result": 80.2, "unit": "%"}, {"measurement": "viability, T/C", "setting": "second compound 0.316 µM, first compound 0.3 µM", "result": 65, "unit": "%"}, {"measurement": "viability, T/C", "setting": "second compound 0.316 µM, first compound 0.949 µM", "result": 57.2, "unit": "%"}, {"measurement": "viability, T/C", "setting": "second compound 0.316 µM, first compound 3 µM", "result": 16, "unit": "%"}, {"measurement": "viability, T/C", "setting": "second compound 1 µM, first compound 0.00949 µM", "result": 89.8, "unit": "%"}, {"measurement": "viability, T/C", "setting": "second compound 1 µM, first compound 0.03 µM", "result": 78.4, "unit": "%"}, {"measurement": "viability, T/C", "setting": "second compound 1 µM, first compound 0.0949 µM", "result": 77.3, "unit": "%"}, {"measurement": "viability, T/C", "setting": "second compound 1 µM, first compound 0.3 µM", "result": 71.7, "unit": "%"}, {"measurement": "viability, T/C", "setting": "second compound 1 µM, first compound 0.949 µM", "result": 41.9, "unit": "%"}, {"measurement": "viability, T/C", "setting": "second compound 1 µM, first compound 3 µM", "result": 22.2, "unit": "%"}, {"measurement": "viability, T/C", "setting": "second compound 3.16 µM, first compound 0.00949 µM", "result": 92.8, "unit": "%"}, {"measurement": "viability, T/C", "setting": "second compound 3.16 µM, first compound 0.03 µM", "result": 80.4, "unit": "%"}, {"measurement": "viability, T/C", "setting": "second compound 3.16 µM, first compound 0.0949 µM", "result": 80.9, "unit": "%"}, {"measurement": "viability, T/C", "setting": "second compound 3.16 µM, first compound 0.3 µM", "result": 57.9, "unit": "%"}, {"measurement": "viability, T/C", "setting": "second compound 3.16 µM, first compound 0.949 µM", "result": 55.9, "unit": "%"}, {"measurement": "viability, T/C", "setting": "second compound 3.16 µM, first compound 3 µM", "result": 15.5, "unit": "%"}, {"measurement": "viability, T/C", "setting": "second compound 10 µM, first compound 0.00949 µM", "result": 87.8, "unit": "%"}, {"measurement": "viability, T/C", "setting": "second compound 10 µM, first compound 0.03 µM", "result": 85.6, "unit": "%"}, {"measurement": "viability, T/C", "setting": "second compound 10 µM, first compound 0.0949 µM", "result": 70, "unit": "%"}, {"measurement": "viability, T/C", "setting": "second compound 10 µM, first compound 0.3 µM", "result": 76.4, "unit": "%"}, {"measurement": "viability, T/C", "setting": "second compound 10 µM, first compound 0.949 µM", "result": 42, "unit": "%"}, {"measurement": "viability, T/C", "setting": "second compound 10 µM, first compound 3 µM", "result": 14.1, "unit": "%"}]}
